Values after ≈ are worked out from the molar mass of the structure shown. Read-outs that look alike come from different tables or passages of the source.
Tests used:
[1] = system: E. coli ATCC 25922 (AECO001); experiment: MIC, CLSI broth microdilution; assay type: cell-based; settings: Escherichia coli
Procedure: (§1) Minimum inhibitory concentrations (MIC) were determined by reference Clinical and Laboratory Standards Institute (CLSI) broth microdilution methods per M7-A7 [2006]. Quality control ranges utilizing E. coli ATCC 25922, P. aeruginosa ATCC 27853 and S. aureus ATCC 29213, and interpretive criteria for comparator agents were as published in CLSI M100-S17 [2007]. Briefly, serial two-fold dilutions of the test compounds were prepared at 2× concentration in Mueller Hinton Broth. The compound dilutions were mixed in 96-well assay plates in a 1:1 ratio with bacterial inoculum. The inoculum was prepared by suspension of a colony from an agar plate that was prepared the previous day. Bacteria were suspended in sterile saline and added to each assay plate to obtain a final concentration of 5×10^5 CFU/mL. The plates were incubated at 35° C. for 20 hours in ambient air.

[2] = system: P. aeruginosa ATCC 27853 (APAE001); experiment: MIC, CLSI broth microdilution; assay type: cell-based; settings: Pseudomonas aeruginosa
Procedure: as §1

[3] = ATCC25922, read-out: MIC AECO001, Table 1, AECO001 is ATCC25922
[4] = ATCC27853, read-out: MIC APAE001, Table 1, APAE001 is ATCC27853

Compound	MIC [1, 3] [µg/mL]	MIC [2, 4] [µg/mL]	MIC ([1]; ATCC25922, Table 2, read-out: MIC E. coli) [µg/mL]	MIC ([1]; Table 1, AECO001 is ATCC25922, read-out: MIC AECO001) [µg/mL]	MIC ([2]; ATCC27853, Table 2, read-out: MIC P. aeruginosa) [µg/mL]
CN[C@@H]1[C@@H](O)[C@@H](O[C@@H]2[C@@H](O)[C@H](O[C@H]3OC(CN)=CC[C@H]3NC(=O)C(N)CCCN)[C@@H](N)C[C@H]2NC(=O)[C@@H](O)CCN)OC[C@]1(C)O (stereo partly drawn) [Example 99, 2′-(2,5-Diamino-pentoyl)-1-(4-amino-2(S)-hydroxy-butyryl)-sisomicin]	1 to 16 (≈ 1.51 to 24.1 µM)	1 to 16 (≈ 1.51 to 24.1 µM)	–	–	–
CN[C@@H]1[C@@H](O)[C@@H](O[C@@H]2[C@@H](O)[C@H](O[C@H]3OC(CNCC4(N)CCC4)=CC[C@H]3N)[C@@H](N)C[C@H]2NC(=O)[C@@H](O)CN)OC[C@]1(C)O [Example 56, 6′-(Methyl-1-amino-cyclobutyl)-1-(3-amino-2(S)-hydroxy-propionyl)-sisomicin]	< 1	> 16	–	–	–
CN[C@@H]1[C@@H](O)[C@@H](O[C@@H]2[C@@H](O)[C@H](O[C@H]3OC(CNCCO)=CC[C@H]3N)[C@@H](N)C[C@H]2NC(=O)C2(O)CNC2)OC[C@]1(C)O [Example 37]	< 1	1 to 16 (≈ 1.69 to 27.1 µM)	–	–	–
CN[C@@H]1[C@@H](O)[C@@H](O[C@@H]2[C@@H](O)[C@H](O[C@H]3OC(CNC[C@H](O)C(=O)O)=CC[C@H]3N)[C@@H](N)C[C@H]2NC(=O)[C@@H](O)CCN)OC[C@]1(C)O [Example 50, 6′-(2(S)-Hydroxy-3-propanoic)-1-(4-amino-2(S)-hydroxy-butyryl)-sisomicin]	> 16	> 16	–	–	–
CN[C@@H]1[C@@H](O)[C@@H](O[C@@H]2[C@@H](O)[C@H](O[C@H]3OC(CNCCO)=CC[C@H]3N)[C@@H](N)C[C@H]2NC(=O)C(O)C2CNC2)OC[C@]1(C)O (some centres unmarked) [Example 75, 6′-(2-Hydroxy-ethyl)-1-(2-(azetidin-3-yl)-2-hydroxy-acetyl)-sisomicin]	1 to 16 (≈ 1.65 to 26.5 µM)	> 16	–	–	–
CN[C@@H]1[C@@H](O)[C@@H](O[C@@H]2[C@@H](O)[C@H](O[C@H]3OC(CNCC(O)CO)=CC[C@H]3N)[C@@H](N)C[C@H]2NC(=O)[C@@H](O)CN)OC[C@]1(C)O (stereo partly drawn) [Example 14, 6′-(2-Hydroxy-propanol)-1-(3-amino-2(S)-hydroxy-propionyl)-sisomicin]	1 to 16 (≈ 1.64 to 26.3 µM)	1 to 16 (≈ 1.64 to 26.3 µM)	–	–	–
CN[C@@H]1[C@@H](O)[C@@H](O[C@@H]2[C@@H](O)[C@H](O[C@H]3OC(CN)=CC[C@H]3NCCCN)[C@@H](N)C[C@H]2NC(=O)[C@@H](O)CCN)OC[C@]1(C)O [Example 91, 2′-(3-Amino-propyl)-1-(4-amino-2(S)-hydroxy-butyryl)-sisomicin]	< 1	< 1	–	–	–
CN[C@@H]1[C@@H](O)[C@@H](O[C@@H]2[C@@H](O)[C@H](O[C@H]3OC(CNCC4CC4)=CC[C@H]3N)[C@@H](N)C[C@H]2NC(=O)[C@H](O)CCN)OC[C@]1(C)O [Example 5, 6′-(Methyl-cyclopropyl)-1-(4-amino-2(R)-hydroxy-butyryl)-sisomicin]	< 1	1 to 16 (≈ 1.66 to 26.5 µM)	–	–	–
CN[C@@H]1[C@@H](O)[C@@H](O[C@@H]2[C@@H](O)[C@H](O[C@H]3OC(CNCCCO)=CC[C@H]3N)[C@@H](N)C[C@H]2NC(=O)[C@@H](O)CN)OC[C@]1(C)O [Example 54, 6′-(3-Propanol)-1-(3-amino-2(S)-hydroxy-propionyl)-sisomicin]	< 1	1 to 16 (≈ 1.69 to 27 µM)	–	–	–
CN[C@@H]1[C@@H](O)[C@@H](O[C@@H]2[C@@H](O)[C@H](O[C@H]3OC(CNCC4CC4)=CC[C@H]3N)[C@@H](N)C[C@H]2NC(=O)[C@H](O)CN)OC[C@]1(C)O [Example 7, 6′-Methyl-cyclopropyl-1-(3-amino-2(R)-hydroxy-propionyl)-sisomicin]	< 1	1 to 16 (≈ 1.7 to 27.2 µM)	–	–	–
CN[C@@H]1[C@@H](O)[C@@H](O[C@@H]2[C@@H](O)[C@H](O[C@H]3OC(CN)=CC[C@H]3NS(=O)(=O)CCN)[C@@H](N)C[C@H]2NC(=O)[C@@H](O)CCN)OC[C@]1(C)O [Example 93, 2′-(2-Amino-ethyl-sulfonamide)-1-(4-amino-2(S)-hydroxy-butyryl)-sisomicin]	< 1	1 to 16 (≈ 1.52 to 24.4 µM)	–	–	–
CN[C@@H]1[C@@H](O)[C@@H](O[C@@H]2[C@@H](O)[C@H](O[C@H]3OC(CNCCCN)=CC[C@H]3N)[C@@H](N)C[C@H]2NC(=O)C2(O)CCNC2)OC[C@]1(C)O (some centres unmarked) [Example 40]	1 to 16 (≈ 1.62 to 25.9 µM)	1 to 16 (≈ 1.62 to 25.9 µM)	–	–	–
CN[C@@H]1[C@@H](O)[C@@H](O[C@@H]2[C@@H](O)[C@H](O[C@H]3OC(CNC[C@H]4C[C@H](N)C4)=CC[C@H]3N)[C@@H](N)C[C@H]2NC(=O)C2(O)CCNC2)OC[C@]1(C)O (stereo partly drawn) [Example 78, 6′-(Methyl-trans-3-amino-cyclobutyl)-1-(3-hydroxy-pyrrolidin-3-yl-acetyl)-sisomicin]	< 1	1 to 16 (≈ 1.55 to 24.9 µM)	–	–	–
CN[C@@H]1[C@@H](O)[C@@H](O[C@@H]2[C@@H](O)[C@H](O[C@H]3OC(CNCC(O)CN)=CC[C@H]3N)[C@@H](N)C[C@H]2NC(=O)[C@@H](O)CN)OC[C@]1(C)O (stereo partly drawn) [Example 22, 6′-(3-Amino-2-hydroxy-propyl)-1-(3-amino-2(S)-hydroxy-propionyl)-sisomicin]	–	–	1 to 16 (≈ 1.65 to 26.3 µM)	1 to 16 (≈ 1.65 to 26.3 µM)	1 to 16 (≈ 1.65 to 26.3 µM)
